Measurements published in ChEMBL document CHEMBL1212704, “Structural and biochemical evidence for a boat-like transition state in beta-mannosidases” (Nat Chem Biol, 2008).

Columns and labels:
[1] = Inhibition of wild type Bacteroides thetaiotaomicron beta-mannosidase 2A expressed in Escherichia coli BL21 (DE3) at 37 degC and Ph 5.6 by 2,4-dinitrophenolate release assay
Beta-mannosidase [2] = biological target: Beta-mannosidase (Bacteroides thetaiotaomicron (strain ATCC 29148 / DSM 2079 / NCTC10582 / E50 / VPI-5482), UniProt Q8AAK6, W645A)
Beta-mannosidase (Bacteroides thetaiotaomicron (strain ATCC 29148 / DSM 2079 / NCTC10582 / E50 / VPI-5482), UniProt Q8AAK6, W645A), sequence (Q8AAK6 26-864 W645A limits assumed): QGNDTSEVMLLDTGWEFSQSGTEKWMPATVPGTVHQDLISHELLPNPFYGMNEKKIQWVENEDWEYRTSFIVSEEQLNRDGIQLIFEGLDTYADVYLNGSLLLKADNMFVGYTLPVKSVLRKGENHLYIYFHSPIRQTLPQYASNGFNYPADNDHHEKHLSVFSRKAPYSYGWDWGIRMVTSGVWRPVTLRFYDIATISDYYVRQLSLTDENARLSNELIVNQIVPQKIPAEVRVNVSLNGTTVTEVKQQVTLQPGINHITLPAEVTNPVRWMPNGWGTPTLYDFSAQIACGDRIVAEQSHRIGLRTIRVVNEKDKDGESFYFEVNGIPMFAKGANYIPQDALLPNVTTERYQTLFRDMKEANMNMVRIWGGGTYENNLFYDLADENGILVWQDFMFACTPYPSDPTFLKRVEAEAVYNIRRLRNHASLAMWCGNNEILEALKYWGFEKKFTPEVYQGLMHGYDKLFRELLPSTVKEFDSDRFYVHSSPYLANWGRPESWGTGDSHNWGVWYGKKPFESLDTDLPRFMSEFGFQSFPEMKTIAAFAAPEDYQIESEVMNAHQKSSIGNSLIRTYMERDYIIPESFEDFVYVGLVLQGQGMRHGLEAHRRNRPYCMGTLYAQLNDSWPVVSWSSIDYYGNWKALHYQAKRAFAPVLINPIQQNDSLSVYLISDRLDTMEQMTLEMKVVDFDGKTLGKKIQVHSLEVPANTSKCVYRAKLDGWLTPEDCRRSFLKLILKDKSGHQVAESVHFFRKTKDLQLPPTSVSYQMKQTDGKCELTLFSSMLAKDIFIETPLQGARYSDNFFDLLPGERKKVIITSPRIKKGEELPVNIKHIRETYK

Beta-mannosidase [3] = biological target: Beta-mannosidase (Bacteroides thetaiotaomicron (strain ATCC 29148 / DSM 2079 / NCTC10582 / E50 / VPI-5482), UniProt Q8AAK6, W395A)
Beta-mannosidase (Bacteroides thetaiotaomicron (strain ATCC 29148 / DSM 2079 / NCTC10582 / E50 / VPI-5482), UniProt Q8AAK6, W395A), sequence (Q8AAK6 26-864 W395A limits assumed): as the sequence (Q8AAK6 26-864 W645A limits assumed) above, with W370A, A620W counted along it

Beta-mannosidase [4] = biological target: Beta-mannosidase (Bacteroides thetaiotaomicron (strain ATCC 29148 / DSM 2079 / NCTC10582 / E50 / VPI-5482), UniProt Q8AAK6, Q646A)
Beta-mannosidase (Bacteroides thetaiotaomicron (strain ATCC 29148 / DSM 2079 / NCTC10582 / E50 / VPI-5482), UniProt Q8AAK6, Q646A), sequence (Q8AAK6 26-864 Q646A limits assumed): as the sequence (Q8AAK6 26-864 W645A limits assumed) above, with A620W, Q621A counted along it

Beta-mannosidase [5] = biological target: Beta-mannosidase (Bacteroides thetaiotaomicron (strain ATCC 29148 / DSM 2079 / NCTC10582 / E50 / VPI-5482), UniProt Q8AAK6, W198G)
Beta-mannosidase (Bacteroides thetaiotaomicron (strain ATCC 29148 / DSM 2079 / NCTC10582 / E50 / VPI-5482), UniProt Q8AAK6, W198G), sequence (Q8AAK6 26-864 W198G limits assumed): as the sequence (Q8AAK6 26-864 W645A limits assumed) above, with W173G, A620W counted along it

Beta-mannosidase [6] = biological target: Beta-mannosidase (Bacteroides thetaiotaomicron (strain ATCC 29148 / DSM 2079 / NCTC10582 / E50 / VPI-5482), UniProt Q8AAK6, Y537A)
Beta-mannosidase (Bacteroides thetaiotaomicron (strain ATCC 29148 / DSM 2079 / NCTC10582 / E50 / VPI-5482), UniProt Q8AAK6, Y537A), sequence (Q8AAK6 26-864 Y537A limits assumed): as the sequence (Q8AAK6 26-864 W645A limits assumed) above, with Y512A, A620W counted along it

Beta-mannosidase [7] = biological target: Beta-mannosidase (Bacteroides thetaiotaomicron (strain ATCC 29148 / DSM 2079 / NCTC10582 / E50 / VPI-5482), UniProt Q8AAK6, N461A)
Beta-mannosidase (Bacteroides thetaiotaomicron (strain ATCC 29148 / DSM 2079 / NCTC10582 / E50 / VPI-5482), UniProt Q8AAK6, N461A), sequence (Q8AAK6 26-864 N461A limits assumed): as the sequence (Q8AAK6 26-864 W645A limits assumed) above, with N436A, A620W counted along it

[8] = Inhibition of Thermotoga maritima Beta-glucosidase GH1

Structure (SMILES) | Ki [1] [µM] | Ki (Beta-mannosidase [2]) [µM] | Ki (Beta-mannosidase [3]) [µM] | Ki (Beta-mannosidase [4]) [µM] | Ki (Beta-mannosidase [5]) [µM] | Ki (Beta-mannosidase [6]) [µM] | Ki (Beta-mannosidase [7]) [µM] | other results
CCCCN1C[C@H](O)[C@@H](O)[C@H](O)[C@H]1CO | 6000 | – | – | – | – | – | – | –
OC[C@H]1N/C(=N/O)[C@H](O)[C@@H](O)[C@@H]1O | 2000 | – | – | – | – | – | – | –
O[C@H]1[C@H](O)[C@@H](O)CN2CC[C@H](O)[C@H]12 [CASTANOSPERMINE] | 23000 | – | – | – | – | – | – | –
OC[C@@H]1[C@@H](O)[C@H](O)[C@H](O)c2nc(COc3ccccc3)cn21 | 0.401 | 245 | 284 | 0.494 | 356 | 2.65 | 19.1 | –
OC[C@H]1CNC(O)[C@@H](O)[C@@H]1O (some centres undefined) | – | 1.11 | 40.8 | 14 | 788 | 19.2 | 641 | –
NCCCC/N=C1\N[C@H](CO)[C@@H](O)[C@H](O)[C@H]1O | 22 | – | – | – | – | – | – | –
OC[C@H]1NC[C@H](O)[C@@H](O)[C@@H]1O [DUVOGLUSTAT] | 14000 | – | – | – | – | – | – | –
OC[C@H]1CNC[C@@H](O)[C@@H]1O [AFEGOSTAT] | 9000 | – | – | – | – | – | – | –
OC[C@H]1C[C@H]2[C@@H](O)[C@@H](O)[C@@]1(O)CN2Cc1ccccc1 | – | 14400 | 2850 | 121 | 5690 | 233 | 3750 | –
OC[C@@H]1[C@@H](O)[C@H](O)[C@H](O)c2nc(CNc3ccccc3)cn21 | – | 68.1 | 46.6 | 0.311 | 58.5 | 1.54 | 7.28 | –
OC[C@@H]1[C@@H](O)[C@H](O)[C@H](O)c2nc(C#Cc3ccccc3)cn21 | 2.4 | – | – | – | – | – | – | –
OCCC/N=C1\N[C@H](CO)[C@@H](O)[C@H](O)[C@@H]1O | 2.2 | – | – | – | – | – | – | –
OC[C@@H]1[C@@H](O)[C@H](O)[C@H](O)c2nc(CCc3ccccc3)cn21 | 0.057 | 324 | 47 | 0.245 | 14.2 | 0.71 | 3.19 | –
CCC/N=C1\N[C@H](CO)[C@@H](O)[C@H](O)[C@@H]1O | 1.9 | 5700 | 1180 | 71.2 | 10500 | 84 | 34.8 | –
NCCC/N=C1\N[C@H](CO)[C@@H](O)[C@H](O)[C@@H]1O | 2.1 | – | – | – | – | – | – | –
OC[C@@H]1[C@@H](O)[C@H](O)[C@H](O)c2nnnn21 | 1000 | – | – | – | – | – | – | Ki [8]: 0.17 µM
OC[C@H]1C[C@@H]2NC[C@]1(O)[C@H](O)[C@@H]2O | 500 | – | – | – | – | – | – | –
CC(C)O[C@@H]1O[C@]2(CO)CC[C@]1(O)[C@@H](O)[C@@H]2O | > 400000 | – | – | – | – | – | – | –
OC[C@H]1ONC[C@@H](O)[C@@H]1O [TETRAHYDROOXAZINE] | 20000 | – | – | – | – | – | – | –
O[C@@H]1[C@@H](O)[C@H](O)[C@@]2(O)CC[C@H]1N2 | 11000 | – | – | – | – | – | – | –
